{"source": "ChEMBL document CHEMBL3507680", "about": "“University of Dundee, Gates Library screen for HepG2 cell viability”", "key": {"[1]": {"assay": "Human HepG2 cell viability assay in 384 well format", "format": "toxicity, cell-based", "parameters": "dose 125 nL, time 70.5 hour; cytotoxicity at 70.5 h: concentration not given beside the values", "conditions": "HepG2 cells, read-out: Inhibition"}, "[2]": {"assay": "Human HepG2 cell viability dose-response assay", "format": "toxicity, cell-based"}}, "note": "Several values for one entry are separate records, joined by “and”; a condition that tells them apart may be missing. Identical values can stand only once.", "data": [{"compound": "CNc1cc(C)nc(NCc2cc(C)cc3c(C)c(C)[nH]c23)n1", "values": [{"measurement": "cytotoxicity at 70.5 h", "setting": "[1]", "result": 67.2, "unit": "%"}, {"measurement": "BOTTOM", "setting": "[2]", "result": "-6.522 and -8.24"}, {"measurement": "HILLSLOPE", "setting": "[2]", "result": "2.624 and 2.705"}, {"measurement": "TOP", "setting": "[2]", "result": "104.6 and 104.5"}, {"measurement": "pXC50", "setting": "[2]", "result": "5.463 and 5.453"}]}, {"compound": "Cc1cnc(C(=O)N2CCCC(n3ccnc3C)C2)cn1", "note": "(stereo unspecified)", "values": [{"measurement": "cytotoxicity at 70.5 h", "setting": "[1]", "result": 61.9, "unit": "%"}, {"measurement": "BOTTOM", "setting": "[2]", "result": 0}, {"measurement": "HILLSLOPE", "setting": "[2]", "result": 0}, {"measurement": "TOP", "setting": "[2]", "result": 0}, {"measurement": "pXC50", "setting": "[2]", "result": "< 4.53"}]}, {"compound": "COCCn1c2c(ccc1=O)CC(NCc1cnn(C)c1)CC2", "note": "(stereo unspecified)", "values": [{"measurement": "cytotoxicity at 70.5 h", "setting": "[1]", "result": 101, "unit": "%"}, {"measurement": "BOTTOM", "setting": "[2]", "result": 0}, {"measurement": "HILLSLOPE", "setting": "[2]", "result": 0}, {"measurement": "TOP", "setting": "[2]", "result": 0}, {"measurement": "pXC50", "setting": "[2]", "result": "< 4.53"}]}, {"compound": "Cc1cc(NC(=O)CN2CCn3c(nnc3C(C)C)C2)no1", "values": [{"measurement": "cytotoxicity at 70.5 h", "setting": "[1]", "result": 67.5, "unit": "%"}, {"measurement": "BOTTOM", "setting": "[2]", "result": 0}, {"measurement": "HILLSLOPE", "setting": "[2]", "result": 0}, {"measurement": "TOP", "setting": "[2]", "result": 0}, {"measurement": "pXC50", "setting": "[2]", "result": "< 4.53"}]}, {"compound": "Cc1nc(CN2CCCC(N(C)Cc3cnn(C)c3)C2)no1", "note": "(stereo unspecified)", "values": [{"measurement": "cytotoxicity at 70.5 h", "setting": "[1]", "result": 89.5, "unit": "%"}, {"measurement": "BOTTOM", "setting": "[2]", "result": 0}, {"measurement": "HILLSLOPE", "setting": "[2]", "result": 0}, {"measurement": "TOP", "setting": "[2]", "result": 0}, {"measurement": "pXC50", "setting": "[2]", "result": "< 4.53"}]}, {"compound": "CC(C)(C)c1cn2c(n1)C(CNCc1cnn3ccccc13)CCC2", "note": "(stereo unspecified)", "values": [{"measurement": "cytotoxicity at 70.5 h", "setting": "[1]", "result": 71.2, "unit": "%"}, {"measurement": "BOTTOM", "setting": "[2]", "result": "-11.51 and -11.88"}, {"measurement": "HILLSLOPE", "setting": "[2]", "result": "1.1 and 1.076"}, {"measurement": "TOP", "setting": "[2]", "result": 100}, {"measurement": "pXC50", "setting": "[2]", "result": "5.268 and 5.282"}]}, {"compound": "COc1ccc(C2CCCN2c2nnc(C)s2)c(OC)c1", "note": "(stereo unspecified)", "values": [{"measurement": "cytotoxicity at 70.5 h", "setting": "[1]", "result": 64.4, "unit": "%"}, {"measurement": "BOTTOM", "setting": "[2]", "result": 0}, {"measurement": "HILLSLOPE", "setting": "[2]", "result": 0}, {"measurement": "TOP", "setting": "[2]", "result": 0}, {"measurement": "pXC50", "setting": "[2]", "result": "< 4.53"}]}, {"compound": "CCCNc1cc(-c2c[nH]nc2C2CCN(C(=O)C3CCC3)C2)ccn1", "note": "(stereo unspecified)", "values": [{"measurement": "cytotoxicity at 70.5 h", "setting": "[1]", "result": 96.6, "unit": "%"}, {"measurement": "HILLSLOPE", "setting": "[2]", "result": "3.782 and 3.402"}, {"measurement": "TOP", "setting": "[2]", "result": "97.22 and 96.9"}, {"measurement": "pXC50", "setting": "[2]", "result": "6.441 and 6.523"}]}, {"compound": "COCc1cc(N(C)Cc2c(C)nn(C)c2C)n2nccc2n1", "values": [{"measurement": "cytotoxicity at 70.5 h", "setting": "[1]", "result": 64.9, "unit": "%"}, {"measurement": "BOTTOM", "setting": "[2]", "result": 0}, {"measurement": "HILLSLOPE", "setting": "[2]", "result": 0}, {"measurement": "TOP", "setting": "[2]", "result": 0}, {"measurement": "pXC50", "setting": "[2]", "result": "< 4.53"}]}, {"compound": "COc1cc(OC)c(C2Nc3cc(Cl)ccc3C3=NCCN32)cc1OC", "note": "(stereo unspecified)", "values": [{"measurement": "cytotoxicity at 70.5 h", "setting": "[1]", "result": 73.2, "unit": "%"}, {"measurement": "HILLSLOPE", "setting": "[2]", "result": "0.8757 and 0.9571"}, {"measurement": "TOP", "setting": "[2]", "result": "114.1 and 108.1"}, {"measurement": "pXC50", "setting": "[2]", "result": "4.986 and 5.042"}]}, {"compound": "CCCn1ncc(-c2ccnc(NC3CC(C)(C)NC(C)(C)C3)n2)c1C", "values": [{"measurement": "cytotoxicity at 70.5 h", "setting": "[1]", "result": 80.1, "unit": "%"}, {"measurement": "BOTTOM", "setting": "[2]", "result": 0}, {"measurement": "HILLSLOPE", "setting": "[2]", "result": 0}, {"measurement": "TOP", "setting": "[2]", "result": 0}, {"measurement": "pXC50", "setting": "[2]", "result": "< 4.53"}]}, {"compound": "COCCN1CCN(Cc2cccc(C(N)=O)c2)CC1C", "note": "(stereo unspecified)", "values": [{"measurement": "cytotoxicity at 70.5 h", "setting": "[1]", "result": 71.2, "unit": "%"}, {"measurement": "BOTTOM", "setting": "[2]", "result": 0}, {"measurement": "HILLSLOPE", "setting": "[2]", "result": 0}, {"measurement": "TOP", "setting": "[2]", "result": 0}, {"measurement": "pXC50", "setting": "[2]", "result": "< 4.53"}]}, {"compound": "CN1CCC(c2n[nH]c3ncccc23)C1.O=CO", "note": "(stereo unspecified)", "values": [{"measurement": "cytotoxicity at 70.5 h", "setting": "[1]", "result": 81.6, "unit": "%"}, {"measurement": "HILLSLOPE", "setting": "[2]", "result": "2.128 and 2.318"}, {"measurement": "TOP", "setting": "[2]", "result": 100}, {"measurement": "pXC50", "setting": "[2]", "result": "4.946 and 4.92"}]}, {"compound": "CCc1[nH]c2c(CNc3nc(C)cc(NC)n3)cc(C)cc2c1C", "values": [{"measurement": "cytotoxicity at 70.5 h", "setting": "[1]", "result": 99.9, "unit": "%"}, {"measurement": "BOTTOM", "setting": "[2]", "result": "-3.977 and -5.003"}, {"measurement": "HILLSLOPE", "setting": "[2]", "result": "3.393 and 3.303"}, {"measurement": "TOP", "setting": "[2]", "result": "104.5 and 105"}, {"measurement": "pXC50", "setting": "[2]", "result": "5.219 and 5.191"}]}, {"compound": "CCC(=O)Nc1ccc2c(c1)CN(C(=O)c1ccco1)CC2", "values": [{"measurement": "cytotoxicity at 70.5 h", "setting": "[1]", "result": 66.1, "unit": "%"}, {"measurement": "BOTTOM", "setting": "[2]", "result": 0}, {"measurement": "HILLSLOPE", "setting": "[2]", "result": 0}, {"measurement": "TOP", "setting": "[2]", "result": 0}, {"measurement": "pXC50", "setting": "[2]", "result": "< 4.53"}]}, {"compound": "CC(C)(C)c1cn2c(n1)C(CNCc1ccccn1)CCC2", "note": "(stereo unspecified)", "values": [{"measurement": "cytotoxicity at 70.5 h", "setting": "[1]", "result": 70.8, "unit": "%"}, {"measurement": "BOTTOM", "setting": "[2]", "result": "-8.279 and -9.133"}, {"measurement": "HILLSLOPE", "setting": "[2]", "result": "1.336 and 1.545"}, {"measurement": "TOP", "setting": "[2]", "result": "100 and 90.93"}, {"measurement": "pXC50", "setting": "[2]", "result": "5.194 and 5.33"}]}, {"compound": "CC(O)CN1CCC(CNCc2c[nH]nc2C(C)(C)C)CC1", "note": "(stereo unspecified)", "values": [{"measurement": "cytotoxicity at 70.5 h", "setting": "[1]", "result": 70.3, "unit": "%"}, {"measurement": "BOTTOM", "setting": "[2]", "result": 0}, {"measurement": "HILLSLOPE", "setting": "[2]", "result": 0}, {"measurement": "TOP", "setting": "[2]", "result": 0}, {"measurement": "pXC50", "setting": "[2]", "result": "< 4.53"}]}, {"compound": "Cc1cc(C(=O)NCC(O)c2c(Cl)cccc2Cl)nn1C", "note": "(stereo unspecified)", "values": [{"measurement": "cytotoxicity at 70.5 h", "setting": "[1]", "result": 71.4, "unit": "%"}, {"measurement": "BOTTOM", "setting": "[2]", "result": 0}, {"measurement": "HILLSLOPE", "setting": "[2]", "result": 0}, {"measurement": "TOP", "setting": "[2]", "result": 0}, {"measurement": "pXC50", "setting": "[2]", "result": "< 4.53"}]}, {"compound": "CCN(CC)c1nc(Nc2cccc(C(C)O)c2)nc2ccccc12", "note": "(stereo unspecified)", "values": [{"measurement": "cytotoxicity at 70.5 h", "setting": "[1]", "result": 65, "unit": "%"}, {"measurement": "BOTTOM", "setting": "[2]", "result": "-6.556 and -9.604"}, {"measurement": "HILLSLOPE", "setting": "[2]", "result": "3.369 and 3.239"}, {"measurement": "TOP", "setting": "[2]", "result": "95.36 and 94.66"}, {"measurement": "pXC50", "setting": "[2]", "result": "5.073 and 5.085"}]}, {"compound": "CCS(=O)(=O)N1CCc2ccc(NC(=O)Nc3ccc(F)cc3F)cc21", "values": [{"measurement": "cytotoxicity at 70.5 h", "setting": "[1]", "result": 61, "unit": "%"}, {"measurement": "BOTTOM", "setting": "[2]", "result": "-8.818 and -13.27"}, {"measurement": "HILLSLOPE", "setting": "[2]", "result": "1.034 and 0.9987"}, {"measurement": "TOP", "setting": "[2]", "result": "101.1 and 100"}, {"measurement": "pXC50", "setting": "[2]", "result": "4.643 and 4.737"}]}, {"compound": "COc1ccc(OCCN2CCC(N3CCNC3=O)CC2)cc1", "values": [{"measurement": "cytotoxicity at 70.5 h", "setting": "[1]", "result": 80.5, "unit": "%"}, {"measurement": "HILLSLOPE", "setting": "[2]", "result": "1.006 and 1.131"}, {"measurement": "TOP", "setting": "[2]", "result": "99.89 and 100"}, {"measurement": "pXC50", "setting": "[2]", "result": "4.882 and 4.993"}]}]}
